Experimental data: ChEMBL document CHEMBL1201862, “PubChem BioAssay data set” (2004)
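Assay format: 96-well plates, 48-hour exposure. GI50: concentration for 50% inhibition of growth.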 Active and inactive are the calls of the source. Cut-off read from the data, not from the text of the source: active = GI50 up to about 1.1 µM and inactive = higher.

Experiments:
Assay in all cases: NCI tumour cell line growth inhibition, 48 h
UO-31 = test system: UO-31
KM12 = test system: KM12
Malme-3M = test system: Malme-3M
LXFL 529 = test system: LXFL 529
K562 = test system: K562
COLO 205 = test system: COLO 205
A498 = test system: A498
SNB-75 = test system: SNB-75
TK-10 = test system: TK-10
A549 = test system: A549
SN12C = test system: SN12C
LOX IMVI = test system: LOX IMVI
ACHN = test system: ACHN
OVCAR-3 = test system: OVCAR-3
RPMI-8226 = test system: RPMI-8226
M14 = test system: M14
SK-MEL-28 = test system: SK-MEL-28
HOP-92 = test system: HOP-92

Measured: GI50

CC(C)(C)C1CCN(C(=O)c2ccccc2)CC1
inactive: UO-31 > 100 µM | KM12 > 100 µM | Malme-3M 43.6 µM | LXFL 529 70 µM | K562 63.4 µM | COLO 205 > 100 µM | A498 > 100 µM | SNB-75 69 µM | TK-10 > 100 µM | A549 90.6 µM | SN12C > 100 µM | LOX IMVI > 100 µM | ACHN > 100 µM | OVCAR-3 36.8 µM | RPMI-8226 46 µM | M14 > 100 µM

CCOC(=O)c1cnc2cc3cccccc3n2c1=O
inactive: UO-31 > 100 µM | KM12 60.7 µM | LXFL 529 > 100 µM | K562 > 100 µM | COLO 205 > 100 µM | A498 > 100 µM | SNB-75 97.5 µM | TK-10 > 100 µM | A549 > 100 µM | SN12C > 100 µM | LOX IMVI > 100 µM | ACHN > 100 µM | SK-MEL-28 > 100 µM | OVCAR-3 > 100 µM | RPMI-8226 > 100 µM | M14 > 100 µM

CCCCCCCCC1C(C)c2c([nH]c3ccccc23)C2C(=O)N(c3ccccc3)C(=O)C21 (centres undefined)
inactive: UO-31 15.2 µM | KM12 3.71 µM | Malme-3M 19.5 µM | LXFL 529 16.5 µM | K562 3.9 µM | A498 21.1 µM | SNB-75 19 µM | TK-10 20.1 µM | A549 14 µM | SN12C 11.4 µM | ACHN 11.5 µM | SK-MEL-28 16.8 µM | OVCAR-3 5.08 µM | RPMI-8226 3.4 µM | M14 14 µM

CC(C)(C)[C@H]1CC[C@@](O)(c2ccccc2)CC1.CC(C)(C)[C@H]1CC[C@](O)(c2ccccc2)CC1
inactive: UO-31 31.5 µM | KM12 22.8 µM | Malme-3M 29.9 µM | LXFL 529 21.1 µM | K562 15.2 µM | COLO 205 17.7 µM | A498 19.5 µM | SNB-75 24.3 µM | TK-10 19.4 µM | A549 26 µM | SN12C 18.8 µM | LOX IMVI 15.3 µM | ACHN 20 µM | SK-MEL-28 22.5 µM | OVCAR-3 17.2 µM | RPMI-8226 21.1 µM | M14 18.2 µM

CC(C(=O)c1ccc(Cl)cc1)C1OC(=O)C(Cl)=C1Cl (centres undefined)
inactive: UO-31 95.9 µM | KM12 33.9 µM | Malme-3M 21.4 µM | LXFL 529 19.8 µM | K562 25.2 µM | COLO 205 23.9 µM | A498 41.5 µM | SNB-75 22.1 µM | TK-10 37.2 µM | A549 > 100 µM | SN12C 24.6 µM | LOX IMVI 24.3 µM | ACHN 41.3 µM | SK-MEL-28 27.3 µM | OVCAR-3 28.5 µM | RPMI-8226 26.9 µM | M14 34.1 µM

C/C(=N\NS(=O)(=O)c1c(C)cc(C)cc1C)c1ccc[n+]([O-])n1
inactive: UO-31 21.2 µM | KM12 38.5 µM | LXFL 529 11.3 µM | K562 4.44 µM | A498 29.5 µM | SNB-75 16.9 µM | A549 65.2 µM | SN12C 14.9 µM | ACHN 14.2 µM | HOP-92 9.95 µM | SK-MEL-28 13.3 µM | OVCAR-3 12.6 µM | RPMI-8226 11.7 µM | M14 7.64 µM

NC(=O)CCC(Nc1c2ccccc2[n+]([O-])c2ccccc12)C(=O)O (centres undefined)
inactive: UO-31 58.3 µM | KM12 > 100 µM | Malme-3M 32.7 µM | LXFL 529 31 µM | K562 37.8 µM | COLO 205 49.1 µM | A498 > 100 µM | SNB-75 26.7 µM | TK-10 > 100 µM | A549 > 100 µM | SN12C 71.8 µM | LOX IMVI 49 µM | ACHN 36.6 µM | SK-MEL-28 26.4 µM | OVCAR-3 60.1 µM | RPMI-8226 18.6 µM | M14 > 100 µM

O=C(O)CCSC(=O)Nc1ccccc1F
inactive: UO-31 > 100 µM | KM12 > 100 µM | LXFL 529 > 100 µM | K562 > 100 µM | COLO 205 > 100 µM | A498 > 100 µM | TK-10 > 100 µM | A549 > 100 µM | SN12C > 100 µM | LOX IMVI > 100 µM | ACHN > 100 µM | SK-MEL-28 > 100 µM | OVCAR-3 > 100 µM | RPMI-8226 > 100 µM | M14 > 100 µM

CC(Nc1ccc(S(=O)(=O)NC(=N)N)cc1)c1c2ccccc2nc2ccccc12 (centres undefined)
inactive: UO-31 19 µM | KM12 34.8 µM | Malme-3M 22.4 µM | LXFL 529 28.8 µM | K562 27.6 µM | COLO 205 57.7 µM | SNB-75 26.8 µM | TK-10 47.4 µM | A549 31.4 µM | SN12C 30 µM | LOX IMVI 28 µM | ACHN 24.7 µM | HOP-92 18.5 µM | SK-MEL-28 44.9 µM | OVCAR-3 > 10 µM | RPMI-8226 16.3 µM | M14 41 µM
